Experimental data as given in ChEMBL document CHEMBL1201862, “PubChem BioAssay data set” (2004).
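Briefly, cells in 96-well plates were exposed to five compound concentrations for 48 h, and endpoints were estimated by linear interpolation. GI50 marks 50% less growth.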 The source made the active and inactive calls. Rule as the data show it: active = GI50 up to about 1.1 µM and inactive = higher.

What was measured:
Experiment in all cases: growth of human tumour cells (NCI), 48 h
[1] = tested on: 786-0
[2] = tested on: A498
[3] = tested on: A549
[4] = tested on: ACHN
[5] = tested on: CAKI-1
[6] = tested on: CCRF-CEM
[7] = tested on: COLO 205
[8] = tested on: DU-145
[9] = tested on: EKVX
[10] = tested on: HCC 2998
[11] = tested on: HCT-116
[12] = tested on: HCT-15
[13] = tested on: HL-60
[14] = tested on: HOP-62
[15] = tested on: HOP-92
[16] = tested on: HT-29
[17] = tested on: Hs-578T
[18] = tested on: IGROV-1
[19] = tested on: K562
[20] = tested on: KM12
[21] = tested on: LOX IMVI
[22] = tested on: M14
[23] = tested on: MCF7
[24] = tested on: MDA-MB-231
[25] = tested on: MDA-MB-435
[26] = tested on: MDA-N
[27] = tested on: MOLT-4
[28] = tested on: Malme-3M
[29] = tested on: NCI-H226
[30] = tested on: NCI-H23
[31] = tested on: NCI-H460
[32] = tested on: NCI-H522
[33] = tested on: NCI/ADR-RES
[34] = tested on: OVCAR-3
[35] = tested on: OVCAR-4
[36] = tested on: OVCAR-5
[37] = tested on: OVCAR-8
[38] = tested on: PC-3
[39] = tested on: RPMI-8226
[40] = tested on: RXF 393
[41] = tested on: SF-268
[42] = tested on: SF-295
[43] = tested on: SF-539
[44] = tested on: SK-MEL-28
[45] = tested on: SK-MEL-2
[46] = tested on: SK-MEL-5
[47] = tested on: SK-OV-3
[48] = tested on: SN12C
[49] = tested on: SNB-19
[50] = tested on: SR
[51] = tested on: T47D
[52] = tested on: TK-10
[53] = tested on: U-251
[54] = tested on: UACC-257
[55] = tested on: UACC-62
[56] = tested on: UO-31
[57] = tested on: BT-549
[58] = tested on: SW-620

Question: With `O=[N+]([O-])/C(Cl)=C(\Sc1ccccc1)C(Cl)=C(Cl)Cl` as the compound, how does the GI50 [1] read?
Answer: 0.308 µM (active)

Question: And the GI50 [2]?
Answer: 1.72 µM (inactive)

Question: And the GI50 [3]?
Answer: 0.229 µM (active)

Question: And the GI50 [4]?
Answer: 1.66 µM (inactive)

Question: And the GI50 [5]?
Answer: 1.83 µM (inactive)

Question: What about the GI50 [6] of the same compound?
Answer: 0.296 µM (active)

Question: What about the GI50 [7] of the same compound?
Answer: 0.282 µM (active)

Question: What about the GI50 [8] of the same compound?
Answer: 1.71 µM (inactive)

Question: And the GI50 [9]?
Answer: 2.04 µM (inactive)

Question: What about the GI50 [10] of the same compound?
Answer: 1.93 µM (inactive)

Question: And the GI50 [11]?
Answer: 0.147 µM (active)

Question: What about the GI50 [12] of the same compound?
Answer: 0.42 µM

Question: And the GI50 [13]?
Answer: 0.273 µM (active)

Question: What about the GI50 [14] of the same compound?
Answer: 2.06 µM (inactive)

Question: And the GI50 [15]?
Answer: 1.91 µM (inactive)

Question: And the GI50 [16]?
Answer: 0.355 µM (active)

Question: What about the GI50 [17] of the same compound?
Answer: 0.562 µM (active)

Question: And the GI50 [18]?
Answer: 1.28 µM (inactive)

Question: What about the GI50 [19] of the same compound?
Answer: 0.294 µM (active)

Question: What about the GI50 [20] of the same compound?
Answer: 1.79 µM (inactive)

Question: And the GI50 [21]?
Answer: 0.207 µM (active)

Question: What about the GI50 [22] of the same compound?
Answer: 0.188 µM (active)

Question: What about the GI50 [23] of the same compound?
Answer: 0.159 µM (active)

Question: What about the GI50 [24] of the same compound?
Answer: 0.264 µM (active)

Question: And the GI50 [25]?
Answer: 0.22 µM (active)

Question: And the GI50 [26]?
Answer: 0.288 µM (active)

Question: What about the GI50 [27] of the same compound?
Answer: 0.348 µM (active)

Question: And the GI50 [28]?
Answer: 0.647 µM (active)

Question: And the GI50 [29]?
Answer: 2.23 µM (inactive)

Question: What about the GI50 [30] of the same compound?
Answer: 0.473 µM (active)

Question: What about the GI50 [31] of the same compound?
Answer: 1.54 µM (inactive)

Question: What about the GI50 [32] of the same compound?
Answer: 0.26 µM (active)

Question: What about the GI50 [33] of the same compound?
Answer: 0.216 µM (active)

Question: And the GI50 [34]?
Answer: 1.52 µM (inactive)

Question: What about the GI50 [35] of the same compound?
Answer: 1.49 µM (inactive)

Question: What about the GI50 [36] of the same compound?
Answer: 1.86 µM (inactive)

Question: What about the GI50 [37] of the same compound?
Answer: 0.191 µM (active)

Question: And the GI50 [38]?
Answer: 2.01 µM (inactive)

Question: And the GI50 [39]?
Answer: 0.242 µM (active)

Question: And the GI50 [40]?
Answer: 0.975 µM (active)

Question: And the GI50 [41]?
Answer: 1.4 µM (inactive)

Question: And the GI50 [42]?
Answer: 3.43 µM (inactive)

Question: What about the GI50 [43] of the same compound?
Answer: 1.56 µM (inactive)

Question: And the GI50 [44]?
Answer: 1.41 µM (inactive)

Question: And the GI50 [45]?
Answer: 1.77 µM (inactive)

Question: What about the GI50 [46] of the same compound?
Answer: 0.54 µM (active)

Question: And the GI50 [47]?
Answer: 4.21 µM (inactive)

Question: And the GI50 [48]?
Answer: 0.373 µM (active)

Question: What about the GI50 [49] of the same compound?
Answer: 2.22 µM (inactive)

Question: What about the GI50 [50] of the same compound?
Answer: 0.292 µM (active)

Question: And the GI50 [51]?
Answer: 1.28 µM (inactive)

Question: And the GI50 [52]?
Answer: 1.8 µM (inactive)

Question: What about the GI50 [53] of the same compound?
Answer: 1.29 µM (inactive)

Question: What about the GI50 [54] of the same compound?
Answer: 0.404 µM (active)

Question: What about the GI50 [55] of the same compound?
Answer: 0.647 µM (active)

Question: And the GI50 [56]?
Answer: 0.284 µM (active)

Question: For `O=Cc1cn(CCCCCn2cc(C=O)c3ccccc32)c2ccccc12`, which GI50 [1] is on record?
Answer: 71.4 µM (inactive)

Question: And the GI50 [2]?
Answer: 5.71 µM (inactive)

Question: What about the GI50 [3] of the same compound?
Answer: > 100 µM (inactive)

Question: And the GI50 [4]?
Answer: > 100 µM (inactive)

Question: What about the GI50 [57] of the same compound?
Answer: > 100 µM (inactive)

Question: What about the GI50 [5] of the same compound?
Answer: > 100 µM (inactive)

Question: And the GI50 [6]?
Answer: > 100 µM (inactive)

Question: What about the GI50 [7] of the same compound?
Answer: > 100 µM (inactive)

Question: And the GI50 [8]?
Answer: > 100 µM (inactive)

Question: What about the GI50 [9] of the same compound?
Answer: > 100 µM (inactive)

Question: What about the GI50 [11] of the same compound?
Answer: > 100 µM (inactive)

Question: What about the GI50 [12] of the same compound?
Answer: > 100 µM

Question: What about the GI50 [13] of the same compound?
Answer: > 100 µM (inactive)

Question: What about the GI50 [15] of the same compound?
Answer: > 100 µM (inactive)

Question: And the GI50 [16]?
Answer: > 100 µM (inactive)

Question: What about the GI50 [17] of the same compound?
Answer: 25 µM (inactive)

Question: What about the GI50 [18] of the same compound?
Answer: > 100 µM (inactive)

Question: And the GI50 [19]?
Answer: > 10 µM (inactive)

Question: What about the GI50 [21] of the same compound?
Answer: 41.5 µM (inactive)

Question: What about the GI50 [22] of the same compound?
Answer: > 100 µM (inactive)

Question: What about the GI50 [24] of the same compound?
Answer: 54.6 µM (inactive)

Question: And the GI50 [25]?
Answer: > 100 µM (inactive)

Question: What about the GI50 [26] of the same compound?
Answer: > 100 µM (inactive)

Question: What about the GI50 [27] of the same compound?
Answer: > 100 µM (inactive)

Question: And the GI50 [28]?
Answer: > 100 µM (inactive)

Question: What about the GI50 [29] of the same compound?
Answer: 0.262 µM (active)

Question: What about the GI50 [30] of the same compound?
Answer: > 100 µM (inactive)

Question: What about the GI50 [31] of the same compound?
Answer: 0.124 µM (active)

Question: What about the GI50 [32] of the same compound?
Answer: 8.18 µM (inactive)

Question: What about the GI50 [33] of the same compound?
Answer: > 100 µM (inactive)

Question: And the GI50 [34]?
Answer: > 100 µM (inactive)

Question: What about the GI50 [36] of the same compound?
Answer: 1.68 µM (inactive)

Question: And the GI50 [37]?
Answer: > 100 µM (inactive)

Question: What about the GI50 [38] of the same compound?
Answer: > 100 µM (inactive)

Question: What about the GI50 [39] of the same compound?
Answer: > 100 µM (inactive)

Question: And the GI50 [40]?
Answer: 6.55 µM (inactive)

Question: And the GI50 [41]?
Answer: 16.7 µM (inactive)

Question: What about the GI50 [42] of the same compound?
Answer: 10.4 µM (inactive)

Question: What about the GI50 [43] of the same compound?
Answer: > 100 µM (inactive)

Question: And the GI50 [45]?
Answer: > 100 µM (inactive)

Question: What about the GI50 [46] of the same compound?
Answer: > 100 µM (inactive)

Question: What about the GI50 [47] of the same compound?
Answer: > 100 µM (inactive)

Question: And the GI50 [48]?
Answer: > 100 µM (inactive)

Question: What about the GI50 [49] of the same compound?
Answer: > 100 µM (inactive)

Question: What about the GI50 [50] of the same compound?
Answer: > 100 µM (inactive)

Question: What about the GI50 [58] of the same compound?
Answer: > 100 µM (inactive)

Question: And the GI50 [52]?
Answer: > 100 µM (inactive)

Question: And the GI50 [53]?
Answer: 67.9 µM (inactive)

Question: What about the GI50 [54] of the same compound?
Answer: > 100 µM (inactive)

Question: And the GI50 [55]?
Answer: > 100 µM (inactive)

Question: What about the GI50 [56] of the same compound?
Answer: > 100 µM (inactive)
